T1: TIP47 (endogenous, K562) (human (endogenous in K562)), O60664
T1 chain: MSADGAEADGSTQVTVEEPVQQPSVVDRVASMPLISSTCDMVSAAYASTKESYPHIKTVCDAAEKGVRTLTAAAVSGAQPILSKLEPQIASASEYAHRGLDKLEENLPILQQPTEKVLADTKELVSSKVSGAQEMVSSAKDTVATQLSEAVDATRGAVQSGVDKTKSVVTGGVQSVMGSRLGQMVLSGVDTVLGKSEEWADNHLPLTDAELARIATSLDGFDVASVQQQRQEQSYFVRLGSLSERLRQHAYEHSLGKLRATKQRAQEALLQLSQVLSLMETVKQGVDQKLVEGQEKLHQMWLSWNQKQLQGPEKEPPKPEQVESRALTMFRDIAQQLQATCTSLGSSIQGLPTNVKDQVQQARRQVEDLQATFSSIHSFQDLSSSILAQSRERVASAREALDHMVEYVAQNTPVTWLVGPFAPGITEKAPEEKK


Columns and labels:
[1] = target: GST-RhoBTB3 Rho domain (residues 1-220) (Homo sapiens, UniProt O94955, N138D); experiment: [γ-32P]ATP hydrolysis; format: biochemical; conditions: MgCl2; labelled compound; 20 nM protein
[2] = target: T1, TIP47 (endogenous, K562) (human …); experiment: native gel or EMSA; conditions: remark: other sources report otherwise

Sequence of GST-RhoBTB3 Rho domain (residues 1-220) (O94955 1-220 N138D): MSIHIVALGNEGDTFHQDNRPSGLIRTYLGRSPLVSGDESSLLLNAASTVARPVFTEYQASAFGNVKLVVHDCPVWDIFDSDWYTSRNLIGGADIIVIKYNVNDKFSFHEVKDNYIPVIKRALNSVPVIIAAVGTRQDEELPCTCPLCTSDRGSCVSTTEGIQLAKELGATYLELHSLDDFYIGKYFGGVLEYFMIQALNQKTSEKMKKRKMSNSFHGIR

Row | Molecule | [γ-32P]ATP hydrolysis [1] | stoichiometry N [2]
1 | Nc1ncnc2c1ncn2[C@@H]1O[C@H](COP(=O)(O)OP(=O)(O)OP(=O)(O)O)[C@@H](O)[C@H]1O [ATP] | reverted to the D found in most other small GTPases (N138D), significantly less binding | 
2 | TIP47 (endogenous, K562), O60664 1-434 (natural protein) MSADGAEADGSTQVTVEEPVQQPSVVDRVASMPLISSTCDMVSAAYASTKESYPHIKTVCDAAEKGVRTLTAAAVSGAQPILSKLEPQIASASEYAHRGLDKLEENLPILQQPTEKVLADTKELVSSKVSGAQEMVSSAKDTVATQLSEAVDATRGAVQSGVDKTKSVVTGGVQSVMGSRLGQMVLSGVDTVLGKSEEWADNHLPLTDAELARIATSLDGFDVASVQQQRQEQSYFVRLGSLSERLRQHAYEHSLGKLRATKQRAQEALLQLSQVLSLMETVKQGVDQKLVEGQEKLHQMWLSWNQKQLQGPEKEPPKPEQVESRALTMFRDIAQQLQATCTSLGSSIQGLPTNVKDQVQQARRQVEDLQATFSSIHSFQDLSSSILAQSRERVASAREALDHMVEYVAQNTPVTWLVGPFAPGITEKAPEEKK |  | 2
